Legend:
[1] = tested on: histamine release on anaphylaxis in abdominal cavity; assay: Histamine releasing inhibition test on anaphylaxis in abdominal cavity of rats; type: in vivo, rat (Sprague-Dawley strain); settings: oral, 3 hours before anaphylaxis; dose not given
Procedure: (§1) SRS-A and histamine releasing inhibition test on anaphylaxis in abdominal cavity of rats.
(§2) Male or female rats (Sprague-Dawley strain, delivered from Charles River, Japan Ltd., Tokyo) of 6-7 week age were used as the test animals. The test animals were devided into a group consisting of 6 animals in one group depending on their body weight. The animals were fasted overnight. The test was conducted by a method according to P. T. Orange et al.: "J. Immunol., Vol. 105", pages 1087-1095 (1970).
(§3) 1 Milliliter each of twofold diluted anti-ovalbumin serm of rat was intraperitoneally injected to each of the test animal so as to have the rat sensitized. 2 Hours after the sensitization, 5 ml of Tyrode's solution containing 2 mg of ovalbumin and 250 micrograms of heparin sodium was intraperitoneally administered to the test animal to cause anaphylaxis. 5 Minutes after, the test animal was stunned by the blow on the head and was exsanguinated and killed by cervical incision. Additional 5 minutes later, the abdominal fluid was collected from the opening of the abdomen. The fluid collected was centrifuged at 4° C., first at 800 rpm, then at 2,500 rpm and the supernatant was collected, and stored at -80° C. until the bioassay was conducted. […]
(§4) The amount of SRS-A and histamine contained in the collected abdominal fluid was measured by a method similar to that employed in Pharmacological test-2.
(§5) Bio-assay of the collected abdominal fluid was conducted by using ileum of guinea pig which was treated with atropine. […] The isotonic contraction of the piece of the ileum was measured at 0.5 g of load by using an isotonic transducer "TD-112S" (manufactured by Nihon Koden Co., Ltd.). The measurements were recorded on an ink-writing recorder.
After stabilization of the contraction reaction due to histmine, the amount of histamine was measured quantitatively by observing the contraction of the piece of the ileum shown within 30 seconds after addition of 0.05-0.4 ml of the abdominal fluid. […]

[2] = tested on: SRS-A release on anaphylaxis in abdominal cavity; assay: SRS-A releasing inhibition test on anaphylaxis in abdominal cavity of rats; type: in vivo, rat (Sprague-Dawley strain); settings: oral, 3 hours before anaphylaxis; dose not given
Procedure: as §1, §2, §3, §4, §5
The amount of SRS-A was measured by using the value of contraction shown after the addition of 0.2-0.5 ml of the collected fluid in the presence of 10^-7 M of pyrilamine (antihistaminic agent), said value of the contraction was calculated as contraction activity caused by 5 ng of histamine. […]

Row | SMILES | Inhibitory rate (%) Histamine [1] | Inhibitory rate (%) SRS-A [2]
1 | COC1=CC(=O)C(OC)=C(CCCCCC2=C(OC)C(=O)C=C(OC)C2=O)C1=O [Test Compound No. 9, 2,2'-Pentamethylenebis(3,6-dimethoxy-1,4-benzoquinone)] | -3.6% | 4.9%
2 | COC1=CC(=O)C(OC)=C(CCCCCCCCCC2=C(OC)C(=O)C=C(OC)C2=O)C1=O [Test Compound No. 13, 2,2'-Nonamethylenebis(3,6-dimethoxy-1,4-benzoquinone)] | 10.9% | 25.8%
3 | COC1=CC(=O)C(OC)=C(CCCCCC#CCCCCCC2=C(OC)C(=O)C=C(OC)C2=O)C1=O [Test Compound No. 16, 2,2'-(6-Dodecynylene)bis(3,6-dimethoxy-1,4-benzoquinone)] | 8.0% | 15.5%

— patent US5220042A, “1,4-benzoquinone derivatives and benzene derivatives, and process for preparing the same” (priority 1984, dated 1993)
